Measured values: US20260078130A1, “NAMPT MODULATORS, PREPARATIONS, AND USES THEREOF” (SIRONAX LTD., priority 2022, published 2026)

Experiments:
[1] = test system: endogenous NAMPT in U2OS cells; test: Cellular NAD+ modulation assay (NAD/NADH-Glo, U2OS cells); type: cell-based; conditions: Homo sapiens, 24 hours incubation, cellular NAD+; for maximal fold induction: read-out: Cellular Emax
In short: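 Endogenous NAMPT stimulation in U2OS cells treated with compound dilution series for 24 h at 37 °C. Cells lysed with DTAB base, acid-treated 15 min at 60 °C, neutralized, NAD+ read by NAD/NADH-Glo luminescence after 40 min at room temperature. EC50 and Emax (fold over DMSO) derived.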

[2] = molecular target: T1, human enzyme NAMPT (full length) (Homo sapiens, UniProt P43490); test: NMN fluorescence biochemical assay (stimulation of NMN synthesis by NAMPT); conditions: for EC50: NMN fluorescence assay, purified human NAMPT 100 nM, concentration giving half-maximal activation, read-out: Enzymatic EC50; for Enzymatic Emax: fold change of maximal activation compared to DMSO
T1 construct: human enzyme NAMPT (full length)
In short: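 Full-length human NAMPT (100 nM) was preincubated 15 min at 37 °C with compound in 50 mM Tris-HCl pH 7.5, 10 mM MgCl2, 2 mM DTT, then reacted 1 h at 37 °C with 50 μM NAM, 100 μM PRPP, 4 mM ATP (stated solution concentrations). NMN was derivatised with acetophenone/KOH then formic acid and read at Ex/Em 382/445 nm; EC50 and Emax (fold over DMSO) reported.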

T1 sequence (P43490 whole entry): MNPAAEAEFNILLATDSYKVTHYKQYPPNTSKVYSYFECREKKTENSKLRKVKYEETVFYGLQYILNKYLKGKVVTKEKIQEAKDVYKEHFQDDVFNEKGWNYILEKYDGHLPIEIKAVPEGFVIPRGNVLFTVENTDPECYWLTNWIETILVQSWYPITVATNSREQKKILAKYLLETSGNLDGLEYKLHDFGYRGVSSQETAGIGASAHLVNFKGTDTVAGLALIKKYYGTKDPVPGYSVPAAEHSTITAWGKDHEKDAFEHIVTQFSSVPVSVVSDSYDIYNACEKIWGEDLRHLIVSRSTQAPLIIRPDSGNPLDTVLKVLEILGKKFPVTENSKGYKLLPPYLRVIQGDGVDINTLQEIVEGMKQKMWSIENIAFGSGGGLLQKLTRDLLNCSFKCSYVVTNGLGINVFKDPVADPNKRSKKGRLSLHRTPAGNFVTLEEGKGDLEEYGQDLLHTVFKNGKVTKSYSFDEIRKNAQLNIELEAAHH

Row | EC50 [1] [µM] | EC50 [2] [µM] | Enzymatic Emax [2] | SMILES | maximal fold induction [1]
1 | 0.5 to 5 | 0.5 to 5 | B (3≥B>2) | COc1ccc(CN2C(=O)c3ccccc3C2Cc2ncccc2Br)cn1 (stereo not shown) [Compound 513, 3-((3-bromopyridin-2-yl)methyl)-2-((6-methoxypyridin-3-yl)methyl)isoindolin-1-one] | > 1.5
2 | 0.5 to 5 | 0.5 to 5 | A (A>3) | Cn1ncc(Cl)c1CC1c2cc(C3CN(C(=O)OC(C)(C)C)C3)ccc2C(=O)N1CC1CC2(CNC(=O)O2)C1 (stereo not shown) [Compound 514, tert-butyl 3-(3-((4-chloro-1-methyl-1H-pyrazol-5-yl)methyl)-1-oxo-2-((6-oxo-5-oxa-7-azaspiro[3.4]octan-2-yl)methyl)isoindolin-5-yl)azetidine-1-carboxylate] | > 1.5
3 | 0.5 to 5 | 0.5 to 5 | B (3≥B>2) | Cn1ncc(Cl)c1CC1c2ccccc2C(=O)N1C/C(F)=C/c1c[nH]nc1Cl (stereo not shown) [Compound 519, (Z)-3-((4-chloro-1-methyl-1H-pyrazol-5-yl)methyl)-2-(3-(3-chloro-1H-pyrazol-4-yl)-2-fluoroallyl)isoindolin-1-one] | > 1.5

The next lines start with the compound.

Row | SMILES | EC50 [1] [µM] | EC50 [2] [µM] | Enzymatic Emax [2] | maximal fold induction [1]
4 | Cn1ncc(Cl)c1CC1c2cc(CN3CC4(COC4)C3)ccc2C(=O)N1CC1CC2(CNC(=O)O2)C1 (stereo not shown) [Compound 512, 2-((5-((2-oxa-6-azaspiro[3.3]heptan-6-yl)methyl)-3-((4-chloro-1-methyl-1H-pyrazol-5-yl)methyl)-1-oxoisoindolin-2-yl)methyl)-5-oxa-7-azaspiro[3.4]octan-6-one] | 0.5 to 5 | 0.5 to 5 | B (3≥B>2) | > 1.5
5 | Cn1ncc(Cl)c1CC1c2ccccc2C(=O)N1C/C(F)=C\c1c[nH]nn1 (stereo not shown) [Compound 515, (E)-3-((4-chloro-1-methyl-1H-pyrazol-5-yl)methyl)-2-(2-fluoro-3-(1H-1,2,3-triazol-4-yl)allyl)isoindolin-1-one] | 0.5 to 5 | ≥ 5 | B (3≥B>2) | > 1.5
6 | Cn1ncc(Cl)c1CC1c2ccccc2C(=O)N1C/C=C/c1nn[nH]c1F (stereo not shown) [Compound 516, (E)-3-((4-chloro-1-methyl-1H-pyrazol-5-yl)methyl)-2-(3-(5-fluoro-1H-1,2,3-triazol-4-yl)allyl)isoindolin-1-one] | < 0.5 | < 0.5 | B (3≥B>2) | > 1.5
7 | COc1ccc(CN2C(=O)c3ccccc3C2Cc2c(Cl)cnn2C)cc1F (stereo not shown) [Compound 517, 3-((4-chloro-1-methyl-1H-pyrazol-5-yl)methyl)-2-(3-fluoro-4-methoxybenzyl)isoindolin-1-one] | < 0.5 | 0.5 to 5 | B (3≥B>2) | 1.2 to 1.5
8 | COc1ccc(CN2C(=O)c3ccccc3C2Cc2c(Cl)cnn2C)cc1 (stereo not shown) [Compound 518, 3-((4-chloro-1-methyl-1H-pyrazol-5-yl)methyl)-2-(4-methoxybenzyl)isoindolin-1-one] | < 0.5 | 0.5 to 5 | B (3≥B>2) | 1.2 to 1.5
9 | Cn1ncc(Cl)c1CC1c2cc(F)ccc2C(=S)N1CC1CC2(CNC(=O)O2)C1 (stereo not shown) [Compound 521, 2-((3-((4-chloro-1-methyl-1H-pyrazol-5-yl)methyl)-5-fluoro-1-thioxoisoindolin-2-yl)methyl)-5-oxa-7-azaspiro[3.4]octan-6-one] | 0.5 to 5 | < 0.5 | B (3≥B>2) | > 1.5
10 | Cn1nc(CN2CCOCC2)c(Cl)c1CC1c2ccccc2C(=O)N1CC1CC2(CNC(=O)O2)C1 (stereo not shown) [Compound 522, 2-((1-((4-chloro-1-methyl-3-(morpholinomethyl)-1H-pyrazol-5-yl)methyl)-3-oxoisoindolin-2-yl)methyl)-5-oxa-7-azaspiro[3.4]octan-6-one] | 0.5 to 5 | 0.5 to 5 | B (3≥B>2) | > 1.5
